The record followed here is the METLIN SMRT retention time set (Domingo-Almenara et al. 2019).

The nature of this data set: gradient 5% acetonitrile 3 min, to 50% in 2 min, to 85% in 15 min, held 3 min, 100 µL/min. The following applies: column: Zorbax Extend-C18 2.1 x 50 mm; eluents: water / acetonitrile, 0.1% formic acid. The method in brief:
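Using water and acetonitrile that each contained 0.1% formic acid, mixtures of ~100 pure standards were separated at 100 μL/min on a Zorbax Extend-C18 column (2.1 × 50 mm, 1.8 μm). The HPLC fed a quadrupole time-of-flight mass spectrometer working in positive and negative ionization mode, with dead and dwell volumes of 40 μL and 900 μL. Data were acquired over 3 months. Retention time was read from computationally picked adduct peaks after manual inspection of each.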
For the compound `O=C(Nc1ccc2c(c1)CCC2)C1CCc2nc(N3CCOCC3)ncc2C1` (centres undefined), the RP-LC retention time stood at 793 s.

In turn, `COc1ccc(NC(=O)Cn2nc(N3CCOCC3)c3ccccc3c2=O)cc1Cl` yielded an RP-LC retention time of 794 s.

`Cc1oc(C2CCN(C(=O)Nc3ccc(F)cc3)CC2)nc1C(=O)N(C)C` had an RP-LC retention time of 684 s.

`CC(CNC(=O)CN1C(=O)CCCc2ccccc21)c1ccccc1` (centres undefined): the RP-LC retention time was found to be 836 s.

In turn, `CC(/C=C/c1cccc(Oc2ccc(F)cc2)c1)N(O)C(N)=O` (centres undefined) came in with an RP-LC retention time of 927 s.

For `Cc1nc2cc3c(cc2n1CC(=O)Nc1cccc(C(F)(F)F)c1)OCCO3`, the RP-LC retention time was found to be 712 s.

`Cc1noc(C)c1-c1ccc(S(=O)(=O)N2CCOCC2)cc1`: the RP-LC retention time turned out to be 807 s.

For `COc1ccc(OCC(=O)N2CCc3cc(-c4csc(C)n4)ccc32)cc1`, the RP-LC retention time turned out to be 958 s.

On to `O=C(Nc1ccc2c(c1)OCCO2)N1CCc2nc(-c3ccc(F)cc3)ncc2C1`, for which the RP-LC retention time stood at 898 s.

The compound `COc1ccc2c(OCc3nnc4ccc(-c5ccccc5)nn34)ccnc2c1` gave an RP-LC retention time of 690 s.

In turn, `COc1ccc(C)c2sc(NS(=O)(=O)c3ccc(C)cc3)nc12` gave an RP-LC retention time of 870 s.

Turning to `O=c1c2sccc2n(Cc2nc(-c3ccc(F)cc3)no2)c(=O)n1-c1ccc(Cl)cc1`, the RP-LC retention time is 1070 s.

Consider `COc1ccc(Cl)cc1S(=O)(=O)N1CCC(C(=O)NCCO)CC1`, for which the RP-LC retention time came to 629 s.

Turning to `O=S(=O)(c1ccccc1F)N1CCC(c2noc(-c3ccc(F)cc3)n2)CC1`, the RP-LC retention time was determined as 1110 s.

On to `O=C(CCc1ccccc1)NCC1CCN(Cc2ccccn2)CC1`, for which the RP-LC retention time was 556 s.

For `COc1ccc(C2C(C(=O)NCCN3CCOCC3)c3cc(OC)c(OC)cc3C(=O)N2C)cc1` (centres undefined), the RP-LC retention time was 610 s.

`COc1ccc(-c2noc(CCc3nnc4ccc(N5CCN(C6CCCCC6)CC5)nn34)n2)cc1` came in with an RP-LC retention time of 646 s.

The compound `COc1ccc(Cl)cc1S(=O)(=O)NCc1c(-c2ccccc2)nc2sc(C)nn12` returned an RP-LC retention time of 912 s.

The compound `Cc1ccc(NC(=O)N2CCc3c(c(-c4nnc(-c5ccc(F)cc5)o4)nn3C)C2)cc1C` had an RP-LC retention time of 943 s.

Compound `CCc1noc([C@@H]2CC(F)(F)CN2C(=O)c2cnco2)n1` registered an RP-LC retention time of 690 s.

In the case of `Cc1ccc(NC(=O)C(C)C2CCN(C(=O)Nc3ccccc3)CC2)cc1C` (centres undefined), the RP-LC retention time came to 900 s.

In turn, `COc1ccc(NC(=O)N2C[C@@H]3C[C@H]2C[C@@H]3NS(=O)(=O)c2ccccc2)cc1F` returned an RP-LC retention time of 778 s.

Compound `COc1ccc(N2CCN(c3ncc4c(n3)CCN(Cc3ccccc3Cl)C4)CC2)cc1` gave an RP-LC retention time of 667 s.

As to `COc1ccc(CNC(=O)C2(C)CCCN(S(=O)(=O)c3ccccc3F)C2)cc1` (centres undefined), the RP-LC retention time was 900 s.

`Cc1noc(C2CN(C(=O)c3ccc(=O)n(C)n3)C2)n1` had an RP-LC retention time of 530 s.

Regarding `CC1(C)CC(=O)c2cn(-c3ccccc3)c(=O)c(C(=O)NCC3CCCO3)c2C1` (centres undefined), the RP-LC retention time is 738 s.

The compound `O=C(Cn1c(=O)n(C2CC2)c(=O)c2nscc21)NCc1cccs1` yielded an RP-LC retention time of 670 s.

Take `COC(=O)CNC(=O)N1CCc2cc(-c3ccc(C(=O)N4CCOCC4)cc3)ccc21`: the RP-LC retention time worked out at 635 s.

Turning to `O=C(Cn1cnc2c(sc3nc(-c4ccccc4)ccc32)c1=O)NCCc1ccc(Cl)cc1`, the RP-LC retention time was 1060 s.

As to `Cc1ccc(-c2ncccc2CNS(=O)(=O)c2cccs2)cc1`, the RP-LC retention time worked out at 675 s.

`O=C(C1CCN(c2ccc(Sc3ccc(Cl)cc3)nn2)CC1)N1CCN(c2ccccn2)CC1` returned an RP-LC retention time of 644 s.

Compound `CCc1cc(-c2csc(S(=O)(=O)N3CCN(Cc4ccc5c(c4)OCO5)CC3)c2)on1` showed an RP-LC retention time of 753 s.

In the case of `COc1ccc(C2(C(=O)N3CCC(c4nc(-c5cccn5C)no4)C3)CC2)cc1` (centres undefined), the RP-LC retention time stood at 910 s.

On to `CCNC(=O)c1nc(Nc2ccc(F)cc2)c2ccccc2n1`, for which the RP-LC retention time came to 688 s.

`O=C(NC1CCCC1)C1CCCN(S(=O)(=O)Cc2ccccc2Cl)C1` (centres undefined) yielded an RP-LC retention time of 915 s.

Regarding `O=C(Cn1nc(-n2cccn2)ccc1=O)Nc1cc(C(F)(F)F)ccc1Cl`, the RP-LC retention time came out at 730 s.

In turn, `Cc1ccc(CNC(=O)C2CCCN(c3ccc(=O)n(-c4ccc(C)c(Cl)c4)n3)C2)cc1` (centres undefined) registered an RP-LC retention time of 975 s.

Take `CCc1nnc([C@@H]2CC(F)(F)CN2S(=O)(=O)c2ccc(C)cc2)o1`: the RP-LC retention time is 696 s.

For `CC(C)CCNC(=O)Nc1ccc2c(c1)CCN2S(C)(=O)=O`, the RP-LC retention time was determined as 784 s.

In the case of `O=S(=O)(c1cccc(F)c1)N1CCC(n2c(-c3ccoc3)nc3cccnc32)C1` (centres undefined), the RP-LC retention time was 872 s.

In turn, `CCOC(=O)c1cccc(NC(=O)CCc2c(-c3ccc(Cl)cc3)nc3ccccn23)c1` had an RP-LC retention time of 739 s.

Consider `Cn1nccc1-c1nc(-c2ccc3oc(-c4ccccc4)nc3c2)no1`, for which the RP-LC retention time was determined as 1230 s.

For the compound `CN(C)c1cc(C(N)=O)c2cccc(Cl)c2n1`, the RP-LC retention time came to 638 s.

In the case of `O=C(Nc1ccc(-c2nc3ccccc3o2)cc1)Nc1c(F)cccc1F`, the RP-LC retention time was 870 s.

For the compound `CCCCOc1ccc(CNC(=O)c2ccc3c(c2)N(C)C(=O)C2CCCCN32)cc1` (centres undefined), the RP-LC retention time worked out at 843 s.

On to `Cc1ccccc1-c1noc(-c2nc(-c3ccncc3)no2)n1`, for which the RP-LC retention time stood at 1090 s.

Regarding `O=C(CCc1nc2ccccc2n(CC(=O)NC2CCc3ccccc32)c1=O)NC1CCCCC1` (centres undefined), the RP-LC retention time stood at 879 s.

Take `CCCCS(=O)(=O)N1CCCC(Cn2c(C3CC3)nc3cccnc32)C1` (centres undefined): the RP-LC retention time turned out to be 698 s.

For the compound `O=C(Cn1ccn2nc(-c3ccccc3)cc2c1=O)NCc1ccccc1Cl`, the RP-LC retention time amounted to 817 s.

Consider `O=C(NCc1ccc(F)cc1)N1CCCC1c1nc(-c2ccccc2)no1` (centres undefined), for which the RP-LC retention time was determined as 914 s.

Compound `COc1ccc(CCNc2nc(-c3ccccc3)cs2)cc1OC` had an RP-LC retention time of 830 s.

Turning to `CN(C)C[C@@H]1CN(S(C)(=O)=O)C[C@H]1NC(=O)Cn1c(=O)oc2ccccc21`, the RP-LC retention time was 575 s.

For `Cc1nc2cc(-c3noc(-c4ccccc4C(F)(F)F)n3)ccc2o1`, the RP-LC retention time was determined as 1080 s.

`CC1=NN(c2ccccc2)C(=O)C1C(=O)c1ccccc1Br` (centres undefined) had an RP-LC retention time of 1040 s.

Regarding `O=C(NC1CCN(c2nnc3ccccn23)CC1)c1cccc(F)c1`, the RP-LC retention time is 640 s.

`COc1ccc(-c2nc(C)cc(C)c2CNS(=O)(=O)c2ccc(F)cc2)cc1` came in with an RP-LC retention time of 654 s.

Turning to `Cc1cc2c(N3CCCC(C(=O)N4CCN(c5ccc(Cl)cc5)CC4)C3)nccc2s1` (centres undefined), the RP-LC retention time came out at 799 s.

`CCCc1nnsc1C(=O)NCC1CCN(C(=O)Oc2ccccc2)CC1`: the RP-LC retention time turned out to be 863 s.

In turn, `Cn1c(=O)c(N2CCC(NC(=O)Nc3ccc4c(c3)OCO4)CC2)nc2ccccc21` yielded an RP-LC retention time of 809 s.

Regarding `Cc1ccc(Cn2nc3c(S(=O)(=O)N4CCOCC4)cccn3c2=O)c(C)c1`, the RP-LC retention time turned out to be 849 s.

Take `CCOC(=O)c1ccc(NC(=O)N2CCC(n3cnc4cccnc43)CC2)cc1`: the RP-LC retention time amounted to 674 s.

Compound `COC(=O)c1c(C)[nH]c(C(=O)N2CCCC(C(=O)NCCCc3ccccc3)C2)c1C` (centres undefined) showed an RP-LC retention time of 800 s.

Regarding `Cn1c(C(=O)NCc2ccccc2)cc2sccc21`, the RP-LC retention time was 892 s.

The compound `CCOC(=O)c1cnc2c(-c3ccc(Cl)cc3)c(CC)nn2c1N` returned an RP-LC retention time of 1280 s.

As to `Cc1ccc(CCC(=O)Nc2nc(-c3ccc4c(c3)NC(=O)C(C)O4)cs2)cc1` (centres undefined), the RP-LC retention time was 973 s.

`CCc1ccccc1NC(=O)C1CC(=O)N(c2ccc3c(c2)CCN3C(=O)C2CC2)C1` (centres undefined) registered an RP-LC retention time of 780 s.

Compound `O=C(NC1CCCCCCC1)C1CCN(S(=O)(=O)c2ccc(-c3noc(C4CC4)n3)cc2)CC1` displayed an RP-LC retention time of 1120 s.

On to `Cc1nnc(-c2cn(CC(=O)Nc3cccc(F)c3)c3ccccc23)o1`, for which the RP-LC retention time turned out to be 755 s.

In turn, `Cc1ccc2c(c1)N(S(C)(=O)=O)CCC(C(=O)Nc1ccccc1Br)O2` (centres undefined) showed an RP-LC retention time of 1040 s.

In turn, `CCOC(=O)C1CCN(C(=O)C2CCN(c3cnc4nccnc4c3)CC2)CC1` yielded an RP-LC retention time of 663 s.

The compound `O=C(Cn1nc2n(c1=O)CCCC2)Nc1ccc2c(c1)OCO2` came in with an RP-LC retention time of 638 s.

Regarding `COCCN1C(=O)[C@H]2CN(Cc3cccc(Br)c3)C[C@H]2C1=O`, the RP-LC retention time was 656 s.

Regarding `COc1ccc2[nH]c(=O)c(CCC(=O)N(C)Cc3cn(C)nc3C)cc2c1`, the RP-LC retention time amounted to 618 s.

Regarding `O=C(Nc1ccc2c(c1)OCCO2)N1C[C@@H]2C[C@H]1C[C@@H]2NS(=O)(=O)c1ccccc1`, the RP-LC retention time was 678 s.

The compound `CCOC(=O)c1nc(Nc2ccc(C)cc2C)c2ccccc2n1` displayed an RP-LC retention time of 831 s.

Turning to `CCN1c2ccccc2C(=O)NC12CCN(C(=O)Cc1ccc(OC)cc1)CC2`, the RP-LC retention time is 805 s.

As to `Cc1nc(-c2ccccc2)sc1C(=O)Nc1nc(-c2ccccc2Cl)cs1`, the RP-LC retention time came out at 1310 s.

As to `Cc1cc(N2CCC(NC(=O)Nc3ccc(F)cc3F)C2=O)ccc1F` (centres undefined), the RP-LC retention time came out at 845 s.

As for `O=C(CCC(=O)OCC(=O)c1ccccc1)Nc1ccc2ccccc2c1`, the RP-LC retention time is 891 s.
